We go through six compounds from the NIST ThermoML archive (doi:10.1021/je049540s).

Numbers after ± are expanded uncertainties.

For orientation: mass density means the mass of a sample divided by its volume. As usually defined, the refractive index is the speed of light in vacuum divided by its phase velocity in the sample.

Assay in one data set: not given
Conditions: 308.15 K; 101.3 kPa; Liquid.
On to `Cc1ccccc1O` [2-methylphenol], for which the mass density is on record as 1032.73 ± 0.49 kg/m3.
On to `Cc1cccc(O)c1` [3-methylphenol], for which the mass density was 1022.02 ± 0.13 kg/m3.
The same measure, in the same setting: then `CCCCCCCCCC` [decane], with 720.24 ± 0.42 kg/m3.
The same measure, in the same setting: then `CCCCCCCCCCCC` [dodecane], with 738.63 ± 0.36 kg/m3.
Turning to `CCCCCCCCC` [nonane], the mass density is on record as 707.41 ± 0.38 kg/m3.
Take `CCCCCCCCCCC` [undecane]: the mass density turned out to be 729.13 ± 0.36 kg/m3.

A further data set can be described thus: refractive index (Na D-line) (dimensionless). Particulars: 293.15 K; 101.33 kPa; Liquid; Standard Abbe refractometry.
Consider `Cc1cccc(O)c1` [3-methylphenol], for which the refractive index came out at 1.5401 ± 0.0007.
In the case of `CCCCCCCCCCCC` [dodecane], the refractive index amounted to 1.421 ± 0.0007.
As to `CCCCCCCCC` [nonane], the refractive index was 1.4058 ± 0.0007.
Still for that read-out and setting: then `CCCCCCCCCCC` [undecane], with 1.4164 ± 0.0007.

Staying with this data set, now noted: 308.15 K; 101.33 kPa; Liquid; Standard Abbe refractometry.
As for `Cc1ccccc1O` [2-methylphenol], the refractive index came out at 1.5386 ± 0.0007.
Consider `CCCCCCCCCC` [decane], for which the refractive index is on record as 1.4055 ± 0.0007.
